What is called EC50 is the midpoint of the concentration-response curve.

Assay [1] has as its target T1, mu opioid receptor (MOR) (Homo sapiens, UniProt P35372). The assay can be described thus: Hit Hunter cAMP signaling assay (adenylyl cyclase inhibition), PAM mode with EC20 endomorphin-1. It is filed as cell-based.
The target of assay [2] is T1, mu opioid receptor (MOR). Nature of the assay: PathHunter β-arrestin recruitment assay, PAM mode with EC20 endomorphin-1. It is filed as cell-based. The conditions noted are these: for EC50: read-out: β-arr. EC50. The method in brief: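 Enzyme fragment complementation read-out: β-gal ED fragment fused to receptor, EA fused to β-arrestin, recruitment restoring β-gal activity detected by chemiluminescence. EC50 and percent maximal response derived for each compound.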

Where [3] appears, read: adenylyl cyclase inhibition, read-out: cAMP EC50.
Where [4] appears, read: maximal response for adenylyl cyclase inhibition.
Setting [5] is: maximal response for β-arrestin recruitment.
Setting [6] is: maximal response, adenylyl cyclase inhibition.
[7] abbreviates: maximal response, β-arrestin recruitment.
Where [8] appears, read: cAMP EC50, adenylyl cyclase inhibition.

T1 sequence (P35372 whole entry, the tested form may be a part): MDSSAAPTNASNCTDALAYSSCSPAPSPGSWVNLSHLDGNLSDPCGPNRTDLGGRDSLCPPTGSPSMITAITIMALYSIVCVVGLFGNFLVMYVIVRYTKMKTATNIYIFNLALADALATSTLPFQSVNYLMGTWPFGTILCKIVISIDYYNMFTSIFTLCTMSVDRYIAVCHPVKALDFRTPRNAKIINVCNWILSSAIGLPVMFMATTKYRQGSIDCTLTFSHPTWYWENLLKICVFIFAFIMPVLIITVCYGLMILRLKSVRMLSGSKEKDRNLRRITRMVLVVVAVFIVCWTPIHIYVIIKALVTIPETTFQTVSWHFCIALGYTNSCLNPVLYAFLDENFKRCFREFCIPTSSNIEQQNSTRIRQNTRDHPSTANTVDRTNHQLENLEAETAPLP

Regarding `O=S(=O)(c1ccc(Cl)cc1)N1CCCCC1c1ccc(F)cn1` (racemic) [compound 54], the 50% effective concentration (EC50) at mu opioid receptor (MOR) [1] (setting [3]) and at mu opioid receptor (MOR) [2] (β-arrestin recruitment) was greater than 2100 nM in each case. Besides, the “cAMP Max. Resp.” value at mu opioid receptor (MOR) [1] (setting [4]) was “E (E represents a maximal response of 40-60%)”. In addition, the “β-arr Max. Resp.” value on mu opioid receptor (MOR) [2] (setting [5]) is listed as “F (F represents a maximal response of > 60%)”.
Take `COc1ccc(C2CCCCN2S(=O)(=O)c2ccc(Cl)cc2)cc1Cl` (racemic) [compound 51]: the EC50 at mu opioid receptor (MOR) [1] (setting [3]) was 700 to 2100 nM; at mu opioid receptor (MOR) [2] (β-arrestin recruitment), greater than 2100 nM. Also, the “cAMP Max. Resp.” value on mu opioid receptor (MOR) [1] (setting [4]) was “F (F represents a maximal response of > 60%)”. Further, the “β-arr Max. Resp.” value on mu opioid receptor (MOR) [2] (setting [5]) is recorded as “F (F represents a maximal response of > 60%)”.
On to `COc1ccc(N2CCCCC2c2cccc(C(F)(F)F)n2)cc1` (stereo not drawn) [compound 474], for which the 50% effective concentration (EC50) at mu opioid receptor (MOR) [1] (setting [3]) and on mu opioid receptor (MOR) [2] (β-arrestin recruitment) was greater than 2100 nM throughout. The “cAMP Max. Resp.” value at mu opioid receptor (MOR) [1] (setting [6]) is “D (D represents a maximal response of < 40%)”. Besides, the “β-arr Max. Resp.” value at mu opioid receptor (MOR) [2] (setting [7]) is on record as “D (D represents a maximal response of < 40%)”.
In the case of `FC(F)(F)c1cccc(C2CCCCN2c2ccc(Cl)cc2)n1` (stereo not drawn) [compound 454], the EC50 on mu opioid receptor (MOR) [1] (setting [3]) and at mu opioid receptor (MOR) [2] (β-arrestin recruitment) was greater than 2100 nM each time. Also, the “cAMP Max. Resp.” value at mu opioid receptor (MOR) [1] (setting [6]) was “D (D represents a maximal response of < 40%)”. In addition, the “β-arr Max. Resp.” value on mu opioid receptor (MOR) [2] (setting [7]) is on record as “E (E represents a maximal response of 40-60%)”.
As to `FC(F)(F)c1cccc(C2CCCCN2Cc2cccc(Cl)c2)c1` (stereo not drawn) [compound 154], the EC50 on mu opioid receptor (MOR) [1] (setting [8]) and at mu opioid receptor (MOR) [2] (β-arrestin recruitment) was less than 700 nM each time. The “cAMP Max. Resp.” value on mu opioid receptor (MOR) [1] (setting [4]) is on record as “E (E represents a maximal response of 40-60%)”. Besides, the “β-arr Max. Resp.” value at mu opioid receptor (MOR) [2] (setting [5]) was “F (F represents a maximal response of > 60%)”.
Consider `FC(F)(F)c1cccc(C2CCCCN2c2nccc(Cl)n2)c1` (stereo not drawn) [compound 258], for which the EC50 on mu opioid receptor (MOR) [1] (setting [8]) and on mu opioid receptor (MOR) [2] (β-arrestin recruitment) was greater than 2100 nM throughout. Further, the “cAMP Max. Resp.” value at mu opioid receptor (MOR) [1] (setting [4]) is “F (F represents a maximal response of > 60%)”. Besides, the “β-arr Max. Resp.” value on mu opioid receptor (MOR) [2] (setting [5]) is “E (E represents a maximal response of 40-60%)”.
Take `Fc1cccc(C2CCCCN2c2nc(Cl)ncc2F)n1` (stereo not drawn) [compound 133]: the concentration giving a half-maximal response (EC50) at mu opioid receptor (MOR) [1] (setting [8]) and on mu opioid receptor (MOR) [2] (β-arrestin recruitment) was greater than 2100 nM each time. Besides, the “cAMP Max. Resp.” value at mu opioid receptor (MOR) [1] (setting [4]) is on record as “E (E represents a maximal response of 40-60%)”. Besides, the “β-arr Max. Resp.” value at mu opioid receptor (MOR) [2] (setting [5]) is “F (F represents a maximal response of > 60%)”.
With `Fc1ccc(Cl)cc1CN1CCCCC1c1ccc(Cl)c(C(F)(F)F)c1` (stereo not drawn) [compound 150], the concentration giving a half-maximal response (EC50) at mu opioid receptor (MOR) [1] (setting [8]) and at mu opioid receptor (MOR) [2] (β-arrestin recruitment) was less than 700 nM each time. Further, at mu opioid receptor (MOR) [1] (setting [4]), the “cAMP Max. Resp.” value is recorded as “E (E represents a maximal response of 40-60%)”. Moreover, the “β-arr Max. Resp.” value at mu opioid receptor (MOR) [2] (setting [5]) is reported as “F (F represents a maximal response of > 60%)”.
For the compound `Fc1cc(C2CCC(F)CN2c2nc(Cl)ncc2F)cc(C(F)(F)F)c1` (stereo not drawn) [compound 312], the 50% effective concentration (EC50) on mu opioid receptor (MOR) [1] (setting [3]) and on mu opioid receptor (MOR) [2] (β-arrestin recruitment) was less than 700 nM each time. Further, the “cAMP Max. Resp.” value on mu opioid receptor (MOR) [1] (setting [4]) is recorded as “F (F represents a maximal response of > 60%)”. Also, the “β-arr Max. Resp.” value on mu opioid receptor (MOR) [2] (setting [5]) was “F (F represents a maximal response of > 60%)”.
As for `COc1ccc(C2CCCCN2c2ccc(Br)cn2)cc1Br` (stereo not drawn) [compound 231], the half-maximal effective concentration (EC50) at mu opioid receptor (MOR) [1] (setting [8]) and at mu opioid receptor (MOR) [2] (β-arrestin recruitment) was greater than 2100 nM each time. Besides, at mu opioid receptor (MOR) [1] (setting [4]), the “cAMP Max. Resp.” value was “E (E represents a maximal response of 40-60%)”. Further, the “β-arr Max. Resp.” value at mu opioid receptor (MOR) [2] (setting [5]) is “E (E represents a maximal response of 40-60%)”.
With `CCCC1(F)CCCN(c2nc(Cl)ncc2F)C1c1cccc(C(F)(F)F)c1` (stereo not drawn) [compound 424], the EC50 on mu opioid receptor (MOR) [1] (setting [3]) and at mu opioid receptor (MOR) [2] (β-arrestin recruitment) was greater than 2100 nM in each case. The “cAMP Max. Resp.” value on mu opioid receptor (MOR) [1] (setting [6]) is reported as “D (D represents a maximal response of < 40%)”. In addition, the “β-arr Max. Resp.” value on mu opioid receptor (MOR) [2] (setting [7]) is reported as “F (F represents a maximal response of > 60%)”.
Consider `COc1ncc(N2CCCCC2c2cccc(F)n2)c(F)n1` (stereo not drawn) [compound 296], for which the EC50 on mu opioid receptor (MOR) [1] (setting [3]) and on mu opioid receptor (MOR) [2] (β-arrestin recruitment) was greater than 2100 nM in each case. Also, the “cAMP Max. Resp.” value at mu opioid receptor (MOR) [1] (setting [4]) is recorded as “D (D represents a maximal response of < 40%)”. In addition, the “β-arr Max. Resp.” value at mu opioid receptor (MOR) [2] (setting [5]) is given as “D (D represents a maximal response of < 40%)”.

(Values after US11071731B2, “Allosteric modulators of the mu opioid receptor” (Chiromics, LLC, priority 2017, dated 2021).)
